# Data from US20240166646A1, “1H-PYRROLO[2,3-B]PYRIDINE DERIVATIVES AS BCL-2 INHIBITORS FOR THE TREATMENT OF NEOPLASTIC AND AUTOIMMUNE DISEASES” (Newave Pharmaceutical Inc., priority 2020, published 2024).
# Structures can show the parent of a compound that is named as a salt.
# Assays:
# Bcl-2 = Bcl-2 (Homo sapiens (Human), UniProt P10415); test: Bcl-2 competition binding (fluorescence polarization) assay; conditions: fluorescein labeled BH3 peptide 15 nM, Bcl-2 protein 30 nM, 3 hours of incubation at room temperature
# Procedure: Biological Example 1: Bcl-2 Competition Binding (Fluorescence Polarization) Assay
# The fluorescence-labeled 23 amino acid peptide BH3 was purchased from CalBiochem ([…]). […] This binding assay was performed in 96-well plate and with each assay contained 15 and 30 nM of labeled peptide and purified Bcl-2 protein (purchased from R&D Systems, Inc). The assay buffer contained 20 mM Hepes (pH 7.0), 50 mM KCl, 5 mM MgCl2, 20 mM Na2MoO4, 0.1 mg/mi Bovine Gamma Globulin and 0.01% NP40. Compounds were diluted in DMS0 and added to the final assay with concentration range from 20 μM to 2 nM. The polarization degree (mP) value was determined by BioTek Synergy II with background subtraction after 3 hours of incubation at room temperature. IC50 was calculated using Prism software with sigmoidal dose-response curve fitting. ABT-737 was used as reference compound. Such assays, carried out with a range of doses of test compounds, allowed the determination of an approximate IC50 value.
# [1] = tested on: BCL-2-dependent acute lymphoblastic leukemia (ALL) cell line RS4; 11 with G101V mutation; test: In vitro anti-proliferation assay (ATPlite) in RS4; 11 with G101V mutation; type: cell-based; conditions: about 72 hours incubation, medium with 5% FBS or 10% normal human serum, ATPlite luminescence
# Procedure: Cell antiproliferation was assayed by PerkinElmer ATPlite™ Luminescence Assay System. Briefly, the various test cancer cell lines were plated at a density of about 1×10^4 cells per well in Costar 96-well plates, and were incubated with different concentrations of compounds for about 72 hours in medium supplemented with 5% FBS or 10% normal human serum (NHS). One lyophilized substrate solution vial was then reconstituted by adding 5 mL of substrate buffer solution, and was agitated gently until the solution was homogeneous. About 50 μL of mammalian cell lysis solution was added to 100 μL of cell suspension per well of a microplate, and the plate was shaken for about five minutes in an orbital shaker at ˜700 rpm. This procedure was used to lyse the cells and to stabilize the ATP. Next, 50 μL substrate solution was added to the wells and microplate was shaken for five minutes in an orbital shaker at ˜700 rpm. Finally, the luminescence was measured by a PerkinElmer TopCount® Microplate Scintillation Counter. Such assays, carried out with a range of doses of test compounds, allowed the determination of the cellular anti-antiproliferative IC50 of the compounds of the present invention.
# Bcl-2, sequence (P10415 whole entry): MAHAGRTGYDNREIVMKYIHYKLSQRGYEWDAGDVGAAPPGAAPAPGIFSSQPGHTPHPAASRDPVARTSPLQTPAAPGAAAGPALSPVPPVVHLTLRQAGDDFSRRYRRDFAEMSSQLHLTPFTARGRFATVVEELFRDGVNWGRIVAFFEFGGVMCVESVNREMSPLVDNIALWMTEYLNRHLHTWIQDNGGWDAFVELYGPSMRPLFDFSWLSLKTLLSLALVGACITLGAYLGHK
Structure (SMILES),IC50 (Bcl-2) [nM],IC50 [1] [nM],IC50 ([1]; RS4-11) [nM]
"Cc1ccccc1[C@@H]1CCCN1C1CC2(CCN(c3ccc(C(=O)NS(=O)(=O)c4ccc(NCC5CCOCC5)c([N+](=O)[O-])c4)c(N4c5cc6cc[nH]c6nc5O[C@@H]5COC[C@H]54)c3)CC2)C1 [Example 4, 2-[(11R,15S)-13,16-dioxa-2,4,10-triazatetracyclo[7.7.0.0^{3,7}.0^{11,15}]hexadeca-1(9),2,5,7-tetraen-10-yl]-4-{2-[(2S)-2-(2-methylphenyl)pyrrolidin-1-yl]-7-azaspiro[3.5]nonan-7-yl}-N-{3-nitro-4-[(oxan-4-ylmethyl)amino]benzenesulfonyl}benzamide]",0.183,28.3,
"C=C(C)c1ccccc1[C@@H]1CCCN1C1CC2(CCN(c3ccc(C(=O)NS(=O)(=O)c4ccc(NCC5CCOCC5)c([N+](=O)[O-])c4)c(N4c5cc6cc[nH]c6nc5O[C@@H]5COC[C@H]54)c3)CC2)C1 [Example 5, 2-[(11R,15S)-13,16-dioxa-2,4,10-triazatetracyclo[7.7.0.0^{3,7}.0^{11,15}]hexadeca-1(9),2,5,7-tetraen-10-yl]-N-{3-nitro-4-[(oxan-4-ylmethyl)amino]benzenesulfonyl}-4-{2-[(2S)-2-[2-(prop-1-en-2-yl)phenyl]pyrrolidin-1-yl]-7-azaspiro[3.5]nonan-7-yl}benzamide hydrochloride]",0.067,9.5,
"C=Cc1ccccc1[C@@H]1CCCN1C1CC2(CCN(c3ccc(C(=O)NS(=O)(=O)c4ccc(NCC5CCOCC5)c([N+](=O)[O-])c4)c(N4c5cc6cc[nH]c6nc5O[C@@H]5COC[C@H]54)c3)CC2)C1 [Example 6, 2-[(11R,15S)-13,16-dioxa-2,4,10-triazatetracyclo[7.7.0.0^{3,7}.0^{11,15}]hexadeca-1(9),2,5,7-tetraen-10-yl]-4-{2-[(2S)-2-(2-ethenylphenyl)pyrrolidin-1-yl]-7-azaspiro[3.5]nonan-7-yl}-N-{3-nitro-4-[(oxan-4-ylmethyl)amino]benzenesulfonyl}benzamide hydrochloride]",0.083,29,
"CCc1ccccc1[C@@H]1CCCN1C1CC2(CCN(c3ccc(C(=O)NS(=O)(=O)c4ccc(NCC5CCOCC5)c([N+](=O)[O-])c4)c(N4c5cc6cc[nH]c6nc5O[C@@H]5COC[C@H]54)c3)CC2)C1 [Example 7, 2-[(11R,15S)-13,16-dioxa-2,4,10-triazatetracyclo[7.7.0.0^{3,7}.0^{11,15}]hexadeca-1(9),2,5,7-tetraen-10-yl]-4-{2-[(2S)-2-(2-ethylphenyl)pyrrolidin-1-yl]-7-azaspiro[3.5]nonan-7-yl}-N-{3-nitro-4-[(oxan-4-ylmethyl)amino]benzenesulfonyl}benzamide hydrochloride]",0.066,11.5,
"O=C(NS(=O)(=O)c1ccc(NCC2CCOCC2)c([N+](=O)[O-])c1)c1ccc(N2CCC3(CC2)CC(N2CCC[C@H]2c2ccccc2C2CC2)C3)cc1N1c2cc3cc[nH]c3nc2O[C@@H]2COC[C@H]21 [Example 8, 4-{2-[(2S)-2-(2-cyclopropylphenyl)pyrrolidin-1-yl]-7-azaspiro[3.5]nonan-7-yl}-2-[(11R,15S)-13,16-dioxa-2,4,10-triazatetracyclo[7.7.0.0^{3,7}.0^{11,15}]hexadeca-1(9),2,5,7-tetraen-10-yl]-N-{3-nitro-4-[(oxan-4-ylmethyl)amino]benzenesulfonyl}benzamide hydrochloride]",0.066,9.1,
"CNc1ccccc1[C@@H]1CCCN1C1CC2(CCN(c3ccc(C(=O)NS(=O)(=O)c4ccc(NCC5CCOCC5)c([N+](=O)[O-])c4)c(N4c5cc6cc[nH]c6nc5O[C@@H]5COC[C@H]54)c3)CC2)C1 [Example 17, 2-[(11R,15S)-13,16-dioxa-2,4,10-triazatetracyclo[7.7.0.0^{3,7}.0^{11,15}]hexadeca-1(9),2,5,7-tetraen-10-yl]-4-{2-[(2S)-2-[2-(methylamino)phenyl]pyrrolidin-1-yl]-7-azaspiro[3.5]nonan-7-yl}-N-{3-nitro-4-[(oxan-4-ylmethyl)amino]benzenesulfonyl}benzamide]",0.225,99.5,
"CC(C)(C#N)c1ccccc1[C@@H]1CCCN1C1CC2(CCN(c3ccc(C(=O)NS(=O)(=O)c4ccc(NCC5CCOCC5)c([N+](=O)[O-])c4)c(N4c5cc6cc[nH]c6nc5O[C@@H]5COC[C@H]54)c3)CC2)C1 [Example 19, 4-{2-[(2S)-2-[2-(1-cyano-1-methylethyl)phenyl]pyrrolidin-1-yl]-7-azaspiro[3.5]nonan-7-yl}-2-[(11R,15S)-13,16-dioxa-2,4,10-triazatetracyclo[7.7.0.0^{3,7}.0^{11,15}]hexadeca-1(9),2,5,7-tetraen-10-yl]-N-{3-nitro-4-[(oxan-4-ylmethyl)amino]benzenesulfonyl}benzamide hydrochloride]",0.1,71.8,
"CC(C)Oc1ccccc1[C@@H]1CCCN1C1CC2(CCN(c3ccc(C(=O)NS(=O)(=O)c4ccc(NCC5CCOCC5)c([N+](=O)[O-])c4)c(N4c5cc6cc[nH]c6nc5O[C@@H]5COC[C@H]54)c3)CC2)C1 [Example 20, 2-[(11R,15S)-13,16-dioxa-2,4,10-triazatetracyclo[7.7.0.0^{3,7}.0^{11,15}]hexadeca-1(9),2,5,7-tetraen-10-yl]-4-{2-[(2S)-2-(2-isopropoxyphenyl)pyrrolidin-1-yl]-7-azaspiro[3.5]nonan-7-yl}-N-{3-nitro-4-[(oxan-4-ylmethyl)amino]benzenesulfonyl}benzamide]",0.299,60.4,
"COC1(C)CCC(CNc2ccc(S(=O)(=O)NC(=O)c3ccc(N4CCC5(CC4)CC(N4CCC[C@H]4c4ccccc4C(C)C)C5)cc3N3c4cc5cc[nH]c5nc4O[C@@H]4COC[C@H]43)cc2[N+](=O)[O-])CC1 (stereo partly drawn) [Example 36, 4-(2-((S)-2-(2-isopropylphenyl)pyrrolidin-1-yl)-7-azaspiro[3.5]nonan-7-yl)-N-((4-((((1r,4r)-4-methoxy-4-methylcyclohexyl)methyl)amino)-3-nitrophenyl)sulfonyl)-2-((5aR,8aS)-5a,6,8,8a-tetrahydrofuro[3,4-b]pyrrolo[3′,2′:5,6]pyrido[3,2-e][1,4]oxazin-5(1H)-yl)benzamide hydrochloride]",0.31,56.4,
"CO[C@]1(C)CC[C@H](CNc2ccc(S(=O)(=O)NC(=O)c3ccc(N4CCC5(CC4)CC(N4CCC[C@H]4c4ccccc4C(C)C)C5)cc3N3c4cc5cc[nH]c5nc4O[C@@H]4COC[C@H]43)cc2[N+](=O)[O-])CC1 [Example 37, 4-(2-((S)-2-(2-isopropylphenyl)pyrrolidin-1-yl)-7-azaspiro[3.5]nonan-7-yl)-N-((4-((((1s,4s)-4-methoxy-4-methylcyclohexyl)methyl)amino)-3-nitrophenyl)sulfonyl)-2-((5aR,8aS)-5a,6,8,8a-tetrahydrofuro[3,4-b]pyrrolo[3′,2′:5,6]pyrido[3,2-e][1,4]oxazin-5(1H)-yl)benzamide hydrochloride]",0.358,15.2,
"Cc1ccccc1[C@@H]1CCCN1C1CC2(CCN(c3ccc(C(=O)NS(=O)(=O)c4ccc(NCC5(F)CCOCC5)c([N+](=O)[O-])c4)c(N4c5cc6cc[nH]c6nc5O[C@@H]5COC[C@H]54)c3)CC2)C1 [Example 38, N-((4-(((4-fluorotetrahydro-2H-pyran-4-yl)methyl)amino)-3-nitrophenyl)sulfonyl)-2-((5aR,8aS)-5a,6,8,8a-tetrahydrofuro[3,4-b]pyrrolo[3′,2′:5,6]pyrido[3,2-e][1,4]oxazin-5(1H)-yl)-4-(2-((S)-2-(o-tolyl)pyrrolidin-1-yl)-7-azaspiro[3.5]nonan-7-yl)benzamide]",0.202,,13.6
"Cc1ccccc1[C@@H]1CCCN1C1CC2(CCN(c3ccc(C(=O)NS(=O)(=O)c4ccc(NC[C@H]5COCCO5)c([N+](=O)[O-])c4)c(N4c5cc6cc[nH]c6nc5O[C@@H]5COC[C@H]54)c3)CC2)C1 [Example 39, N-((4-((((S)-1,4-dioxan-2-yl)methyl)amino)-3-nitrophenyl)sulfonyl)-2-((5aR,8aS)-5a,6,8,8a-tetrahydrofuro[3,4-b]pyrrolo[3′,2′:5,6]pyrido[3,2-e][1,4]oxazin-5(1H)-yl)-4-(2-((S)-2-(o-tolyl)pyrrolidin-1-yl)-7-azaspiro[3.5]nonan-7-yl)benzamide]",0.19,,49.2
